Experimental data taken from PubChem BioAssay AID1632 (University of Pittsburgh Molecular Library Screening Center, 2009).
Inconclusive results are not listed.

Target: hexokinase 1 [Trypanosoma brucei]
Test: TbHK1 enzyme inhibition, concentration series – biochemical, IC50, dose response (AID 1632)
Settings: recombinant TbHK1 enzyme assay, absorbance read-out

**Q.** `O=[N+]([O-])c1cc(/C=N\Nc2nccs2)ccc1O` was tested. Which IC50 did it give?
**A.** Its IC50 is 2690 nM.

Same assay, conditions: recombinant TbHK1 enzyme assay, absorbance read-out; inhibition; at 100 µM; stronger effect = higher value

**Q.** How did the inhibition turn out when `COc1ccc(C(=O)Nc2cc(Cl)ccc2C(=O)O)cc1` was run?
**A.** The inhibition was 75.7%.

**Q.** `Cc1ccccc1-n1sc2cc(F)ccc2c1=O` was tested. Which inhibition did it give?
**A.** The inhibition was 87.8%.

**Q.** For `Cc1ccc(CNC(=O)CCS(=O)(=O)c2ccc(Br)cc2)cc1`, which inhibition is on record?
**A.** Its inhibition is 82.3%.

**Q.** Which inhibition does the source give for `O=C(Cn1sc2ccccc2c1=O)NC12CC3CC(CC(C3)C1)C2` here?
**A.** Its inhibition is 74.6%.

**Q.** For `CCCCCCCCCCCNC(=O)c1ccoc1C`, which inhibition is on record?
**A.** Its inhibition is 73.4%.

**Q.** Which inhibition does the source give for `C/C(=C/CCC(C)[C@H]1CC[C@@]2(C)C3=C(CC[C@]12C)[C@@]1(C)CCC(=O)C(C)(C)[C@@H]1CC3)C(=O)O` (some centres undefined) here?
**A.** The inhibition was 55.3%.

**Q.** `COC(=O)c1ccccc1NC(=O)CCS(=O)(=O)c1ccc(Br)cc1` was tested. Which inhibition did it give?
**A.** The inhibition was 71.7%.

**Q.** `COc1cc(/C=C(\C#N)c2nc3c(s2)CCCC3)ccc1O` was tested. Which inhibition did it give?
**A.** Its inhibition is 42.4%.

**Q.** With `CCOC(=O)Cc1csc(-n2sc3ccccc3c2=O)n1` as the compound, how does the inhibition read?
**A.** Its inhibition is 46.9%.

**Q.** `O=[N+]([O-])c1cc(/C=N\Nc2nccs2)ccc1O` was tested. Which inhibition did it give?
**A.** Its inhibition is 33.3%.

**Q.** How did the inhibition turn out when `O=c1c2ccccc2sn1-c1ccccc1` was run?
**A.** The inhibition was 22.3%.

**Q.** How did the inhibition turn out when `O=C(O)CCCCC1CCSS1` (centres undefined) was run?
**A.** The inhibition was 96.4%.

**Q.** Which inhibition does the source give for `CCCCc1ccc(/C=C2/C(=O)ON=C2c2ccccc2)s1` here?
**A.** Its inhibition is 32.1%.
